Data from patent publication US20120029054A1, “RNA Interference Mediated Inhibition of GATA Binding Protein 3 (GATA3) Gene Expression Using Short Intefering Nucleic Acid (siNA)” (Merck Sharp & Dohme Corp., priority 2009, published 2012).
[invAb] = inverted abasic unit; m = 2'-O-methyl; r = 2'-OH (RNA); f = 2'-fluoro

What was measured:
GATA3 mRNA [1] = assay: GATA3 mRNA knock-down (Taqman qRT-PCR) after RNAiMax transfection of mouse RAG cells; assay type: cell-based; conditions: 10 nM siNA, 24 hrs, average of 2 experiments
Procedure, shortened: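 Murine RAG cells, 5000/well, transfected 24 h after plating with siNA (10 nM final) complexed with RNAiMax, harvested after 24 h. GATA3 mRNA quantified by TaqMan qRT-PCR with GAPDH reference; % knock-down by comparative Ct (2^−ΔΔCt) versus non-targeting control siNA.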

human GAPDH mRNA = assay: GAPDH specificity screen in human MCF7 cells (β-Actin normalised qRT-PCR); assay type: cell-based; conditions: normalised to β-Actin, three experiments, mean ± S.D.
Method: A series of probes and primers were used to detect the various mRNA transcripts of the genes of β-Actin (human cell line only), and of GATA3 and GAPDH in mouse and human cell lines. All Taqman probes and primers for the experiments here-in described were supplied as pre-validated sets by Applied Biosystems, Inc. (see Table 2).
The assays were performed on an ABI 7900 instrument, according to the manufacturer's instructions. A TaqMan Gene Expression Master Mix (provided in the Cells-to-CT™, Applied Biosystems, Cat #4399002) was used. The PCR reactions were carried out at 50° C. for 2 min, 95° C. for 20 min followed by 40 cycles at 95° C. for 15 secs and 60° C. for 1 min.
The expression level of the gene of interest and % knock-down was calculated using Comparative Ct method: […]
These same three siNAs were tested for specificity in the human MCF7 cell line at 10 nM concentration to determine the effect of the GATA3 siNAs on the mRNA transcript of human GAPDH. In this assay, the samples from the primary screen, discussed above, O-Actin, a ubiquitously expressed ‘house-keeping’ gene, served as an endogenous control for normalization of the data.

GATA3 protein = assay: GATA3 Western Blot in transfected MCF7 cells (6-well plate); assay type: cell-based, human; conditions: 30 nM, 48 hours, average band ratio ± S.D.
Method: MCF7 cells were plated in 6-well plates at final counts of 70,000 cells/well in 2 ml of complete growth media. Transfection was performed using 2.5 uL of RNAiMax per well. Final concentration of siNAs was 30 nM (screen) and 30, 0.3, and 0.003 nM (dose response study). Protein lysates were harvested 24, 48, and 72 hours post-transfection (screen) and 72 hours post-transfection (dose response study). Protein lysates were prepared using Cell Disruption Buffer from the PARIS kit (Ambion, cat #1921) according to manufacturer's instructions. Protein concentration was measured using a Bradford Quick Start Kit (Bio-Rad, cat#500-0205).
The protein source for the Western Blot experiments were from transfection of MCF7 cells in a 6 well plate, as described above.
Protein samples were diluted 1:1 in 2× Laemmli buffer with 5% β-mercapto-ethanol and incubated at 95° C. for 5 minutes. 20-40 ug of protein was loaded in each lane of 10% Tris-HCl gel. One lane was designated for MagicMark Protein Standard (Invitrogen # LC5602). The gel was run at 100V for approximately 2 hours. Protein was transferred to a PVDF membrane at 100V for 60 minutes. Once the transfer was finished, the membrane was blocked in 1% Casein in PBS (BioRad Cat#161-0783) for 1 hour on a plate rocker at room temperature followed by the overnight incubation at 4° C. with mouse monoclonal anti-GATA3 primary antibody (Santa Cruz Biotechnology, cat# HG3-31) diluted 1:500 in 1% Casein in PBS. On the next day, the blot was washed 4×5 minutes in PBST (0.1% Tween-20 in PBS) solution and incubated for 30 minutes at room temperature with goat anti-mouse secondary antibody (Pierce Biotechnology, cat#3 31430) diluted 1:20,000 in 1% Casein. […]
The protein bands were quantified by computing their density which is defined by the ratio between the total intensity of all pixels and the area of the rectangle drawn around each band (intensity/mm^2). The density was calculated by the BioRad software.
The level of protein was quantified using the Bio-Rad VersaDoc Imager according to the protocols of that piece of equipment. […]

GATA3 mRNA [2] = assay: GATA3 mRNA knock-down (Taqman qRT-PCR) after RNAiMax transfection of human MCF7 cells; screen and IC50 dose response; assay type: cell-based; conditions: for % KD Human: 10 nM siNA, 24 hrs; for % KD Human / IC50: MCF7 cells; for IC50 / % KD GATA3 mRNA at 10 nM / % KD GATA3 10 nM: mean ± S.D.; for % KD GATA3 mRNA at 10 nM: Table 4, MCF7 cells, no assay mark printed (same values marked * in Table 3); for % KD GATA3 10 nM: Table 5, MCF7 cells, three experiments, no assay mark printed
Procedure, shortened: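 MCF7 cells (5000/well, 24 h) transfected with siNA–RNAiMax complexes at 10 nM final siNA for 24 h without media change. GATA3 mRNA measured by TaqMan qRT-PCR, alongside β-actin and GAPDH probes. % knock-down by comparative Ct (2^−ΔΔCt) relative to non-targeting control siNA.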

30260-DC: GATA3 siNA duplex, site 1691: sense B GcAuGAcucAcuGGAGGAc TTB (SEQ 73), antisense GUCcuccAGuGAGucAuGcUU (SEQ 74) (sense GCAUGACUCACUGGAGGACTT; antisense GUCCUCCAGUGAGUCAUGCUU; chemistry not fully specified)
% KD Mouse (GATA3 mRNA [1]): 47 ± 0%
% KD GAPDH 10 nM (human GAPDH mRNA): −38 ± 9%
Density (GATA3)/Density (α-Tubulin) (GATA3 protein): 0.025 ± 0.0007
% KD Human (GATA3 mRNA [2]; * Hs00231122_m1 Taqman Assay): 60 ± 1* %
% KD Human (GATA3 mRNA [2]; ** Hs00922328_m1 Taqman Assay): 69 ± 9** %
IC50 (GATA3 mRNA [2]): 0.254 ± 0.212 nM
% KD GATA3 mRNA at 10 nM (GATA3 mRNA [2]): 60 ± 1%
% KD GATA3 10 nM (GATA3 mRNA [2]): 60 ± 1%

30261-DC: GATA3 siNA duplex, site 1637: sense B cAuccAGAccAGAAAccGA TTB (SEQ 75), antisense UCGGuuucuGGucuGGAuGUU (SEQ 76) (sense CAUCCAGACCAGAAACCGATT; antisense UCGGUUUCUGGUCUGGAUGUU; chemistry not fully specified)
% KD Mouse (GATA3 mRNA [1]): 72 ± 2%
% KD GAPDH 10 nM (human GAPDH mRNA): −17 ± 1%
Density (GATA3)/Density (α-Tubulin) (GATA3 protein): 0.01 ± 0.00004
% KD Human (GATA3 mRNA [2]; * Hs00231122_m1 Taqman Assay): 77 ± 4* %
% KD Human (GATA3 mRNA [2]; ** Hs00922328_m1 Taqman Assay): 77 ± 4** %
IC50 (GATA3 mRNA [2]): 0.051 ± 0.03 nM
% KD GATA3 mRNA at 10 nM (GATA3 mRNA [2]): 77 ± 4%
% KD GATA3 10 nM (GATA3 mRNA [2]): 77 ± 4%

30283-DC: GATA3 siNA duplex, human/mouse site 3067: sense B GucccuGuAAuuGuuGuuu TTB (SEQ 119), antisense AAAcAAcAAuuAcAGGGAcUU (SEQ 120) (sense GUCCCUGUAAUUGUUGUUUTT; antisense AAACAACAAUUACAGGGACUU; sense: DNA at AGT, 2'-fluoro at CU, [invAb] at 5' end, 3' end, backbone not given here; antisense: sugars from the 5' end rrrfmmfmmffmfmmmmmfmm, backbone not given here)
% KD Mouse (GATA3 mRNA [1]): 47 ± 1%
% KD Human (GATA3 mRNA [2]; average of 3 experiments): 32 ± 5%

30284-DC: GATA3 siNA duplex, human/mouse site 2155: sense B uGcuGAAcAuuGcAuAuAA TTB (SEQ 121), antisense UUAuAuGcAAuGuucAGcAUU (SEQ 122) (sense UGCUGAACAUUGCAUAUAATT; antisense UUAUAUGCAAUGUUCAGCAUU; sense: DNA at AGT, 2'-fluoro at CU, [invAb] at 5' end, 3' end, backbone not given here; antisense: sugars from the 5' end rrrfmfmfmmfmfffmmfrmm, backbone not given here)
% KD Mouse (GATA3 mRNA [1]): 65 ± 0%
% KD Human (GATA3 mRNA [2]; average of 3 experiments): 46 ± 5%

30285-DC: GATA3 siNA duplex, human/mouse site 2129: sense B GGucucuAGuGcuGuGAAA TTB (SEQ 123), antisense UUUcAcAGcAcuAGAGAccUU (SEQ 124) (sense GGUCUCUAGUGCUGUGAAATT; antisense UUUCACAGCACUAGAGACCUU; sense: DNA at AGT, 2'-fluoro at CU, [invAb] at 5' end, 3' end, backbone not given here; antisense: sugars from the 5' end rrrfmfmmfmffmmmmmffmm, backbone not given here)
% KD Mouse (GATA3 mRNA [1]): 69 ± 1%
% KD Human (GATA3 mRNA [2]; * Hs00231122_m1 Taqman Assay): 49 ± 11* %
% KD Human (GATA3 mRNA [2]; ** Hs00922328_m1 Taqman Assay): 52 ± 10** %

30286-DC: GATA3 siNA duplex, human/mouse site 1956: sense B GcAGGAGcAGuAucAuGAA TTB (SEQ 125), antisense UUCAuGAuAcuGcuccuGcUU (SEQ 126) (sense GCAGGAGCAGUAUCAUGAATT; antisense UUCAUGAUACUGCUCCUGCUU; sense: DNA at AGT, 2'-fluoro at CU, [invAb] at 5' end, 3' end, backbone not given here; antisense: sugars from the 5' end rrrmfmmfmffmfffffmfmm, backbone not given here)
% KD Mouse (GATA3 mRNA [1]): 66 ± 0%
% KD Human (GATA3 mRNA [2]; * Hs00231122_m1 Taqman Assay): 45 ± 3* %
% KD Human (GATA3 mRNA [2]; ** Hs00922328_m1 Taqman Assay): 40 ± 16** %
